Assay results from US9963467B2, “Boronic acid derivatives and therapeutic uses thereof” (Rempex Pharmaceuticals, Inc., priority 2014, dated 2018).

Assays:
[1] = system: KP1005 (CTX-M-14); test: Aztreonam potentiation (MPC@4), KP1005; type: cell-based; conditions: BLI with aztreonam at 4 μg/mL
[2] = system: ec302 (TEM-10); test: Aztreonam potentiation (MPC@4), ec302; type: cell-based; conditions: BLI with aztreonam at 4 μg/mL
[3] = system: KP1004 (KPC-2); test: Aztreonam potentiation (MPC@4), KP1004; type: cell-based; conditions: BLI with aztreonam at 4 μg/mL
[4] = system: ECL1002; test: Aztreonam potentiation (MPC@4), ECL1002; type: cell-based; conditions: BLI with aztreonam at 4 μg/mL
[5] = system: EC1010 (CMY-6); test: organism not typed; type: cell-based
[6] = system: KP1005 (CTX-M-14); test: Tigemonam potentiation (MPC@4), KP1005; type: cell-based; conditions: BLI with tigemonam at 4 μg/mL
[7] = system: KP1009 (CTX-M-15); test: Tigemonam potentiation (MPC@4), KP1009; type: cell-based; conditions: BLI with tigemonam at 4 μg/mL
[8] = system: ec308 (SHV-5); test: Tigemonam potentiation (MPC@4), ec308; type: cell-based
[9] = system: KP1010 (SHV-12); test: Tigemonam potentiation (MPC@4), KP1010; type: cell-based
[10] = system: ec302 (TEM-10); test: Tigemonam potentiation (MPC@4), ec302; type: cell-based
[11] = system: ECL1002; test: Tigemonam potentiation (MPC@4), ECL1002; type: cell-based; conditions: BLI with tigemonam at 4 μg/mL
[12] = system: EC1010 (CMY-6); test: Tigemonam potentiation (MPC@4), EC1010; type: cell-based; conditions: BLI with tigemonam at 4 μg/mL
[13] = biological target: CTX-M-14 (Escherichia coli, UniProt Q9L5C7); test: Ki, nitrocefin cleavage by purified enzyme, CTX-M-14; type: biochemical; conditions: nitrocefin reporter substrate; read-out: Ki (CTX-M-14, NCF)
In short: (§1)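 Purified enzyme was preincubated with a range of inhibitor concentrations in reaction buffer for 10 min at room temperature. Nitrocefin was then added and its cleavage followed at 490 nm every 10 sec for 10 min.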

[14] = biological target: SHV-12 (Klebsiella pneumoniae, UniProt P0AD64, E235K/G234S/L31Q); test: Ki, nitrocefin cleavage by purified enzyme, SHV-12; type: biochemical; conditions: nitrocefin reporter substrate; read-out: Ki (SHV-12, NCF)
In short: as §1

[15] = biological target: KPC-2 (Klebsiella pneumoniae, UniProt Q9F663); test: Ki, nitrocefin cleavage by purified enzyme, KPC-2; type: biochemical; conditions: nitrocefin reporter substrate; read-out: Ki (KPC-2, NCF)
In short: as §1

[16] = biological target: P99 (Enterobacter cloacae, UniProt P05364); test: Ki, nitrocefin cleavage by purified enzyme, P99; type: biochemical; conditions: nitrocefin reporter substrate; read-out: Ki (P99, NCF)
In short: as §1

[17] = biological target: Pa AmpC (Pseudomonas aeruginosa, UniProt P24735); test: Ki, nitrocefin cleavage by purified enzyme, Pa AmpC; type: biochemical; conditions: nitrocefin reporter substrate; read-out: Ki (Pa AmpC, NCF)
Description: Ki values of inhibition of purified class A, C and D enzymes were determined spectrophotometrically using nitrocefin as reporter substrate. Purified enzymes were mixed with various concentrations of inhibitors in reaction buffer and incubated for 10 min at room temperature. Nitrocefin was added and substrate cleavage profiles were recorded at 490 nm every 10 sec for 10 min. These experiments confirmed that the described compounds are inhibitors with a broad-spectrum of activity towards various β-lactamases.

[18] = biological target: OXA-48 (Klebsiella pneumoniae, UniProt Q6XEC0); test: Ki, nitrocefin cleavage by purified enzyme, OXA-48; type: biochemical; conditions: nitrocefin reporter substrate; read-out: Ki (OXA-48, NCF)
In short: as §1

[19] = system: KP1004 (KPC-2); test: Biapenem potentiation (MPC@1), KP1004; conditions: BLI with biapenem at 1 μg/mL
[20] = system: KP1086 (OXA-48); test: Biapenem potentiation (MPC@1), KP1086; conditions: BLI with biapenem at 1 μg/mL
[21] = Monomer content of pH adjusted aqueous solutions (LC-UV); type: physicochemical; conditions: 1 mg/mL aqueous salt solution, pH adjusted to 7.6 to 8, LC-UV
Description: Boronic acid containing compounds are known to undergo oligomerization. The presence of oligomers can greatly complicate drug development, as they represent new chemical species whose content must be controlled and qualified by testing in toxoicology studies. The monomer content of compounds was evaluated by adjusting aqueous solutions to physiological pH at various concentrations. The monomer content of pH adjusted solutions was measured using LC-UV. Test compounds were weighed out into a 1.5 mL Eppendorf tube. A solution of water was prepared in 1.00 mg/mL, 10.0 mg/mL or 100 mg/mL concentrations of the compound based on active fraction. A volume 20 uL was subtracted to allow room for addition of acid or base to adjust pH. The solution pH was measured. The pH was then adjusted through addition of acid or base as necessary until the reading was in the 7.6 to 8 range. A final pH measurement was made after ensuring all the compound was in solution. The solution was injected onto LC-UV in 0.1 uL to 5 uL volume within less than half an hour after the time the sample was prepared. Elution was done using 0.1% TFA in water for mobile phase A and 0.085% TFA in methanol for mobile phase B on an Excel ACE 5 Super C18 2.1×100 mm column at 0.6 ml/min flow rate with 9 min gradient, 3.9 minute hold at 90% B and 18 minute run time. The absorption was measured at 220, 254 and 300 nm with a 4 nm bandwidth.

Sequence of CTX-M-14 (Q9L5C7 29-291): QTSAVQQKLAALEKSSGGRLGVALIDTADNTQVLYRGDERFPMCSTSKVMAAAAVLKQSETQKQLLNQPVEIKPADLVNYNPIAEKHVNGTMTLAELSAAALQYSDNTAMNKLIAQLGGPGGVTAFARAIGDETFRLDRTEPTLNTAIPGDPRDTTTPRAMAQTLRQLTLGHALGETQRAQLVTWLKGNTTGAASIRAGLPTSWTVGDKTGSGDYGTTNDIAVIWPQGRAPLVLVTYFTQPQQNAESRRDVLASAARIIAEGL
Sequence of SHV-12 (P0AD64 22-286 L31Q/G234S/E235K): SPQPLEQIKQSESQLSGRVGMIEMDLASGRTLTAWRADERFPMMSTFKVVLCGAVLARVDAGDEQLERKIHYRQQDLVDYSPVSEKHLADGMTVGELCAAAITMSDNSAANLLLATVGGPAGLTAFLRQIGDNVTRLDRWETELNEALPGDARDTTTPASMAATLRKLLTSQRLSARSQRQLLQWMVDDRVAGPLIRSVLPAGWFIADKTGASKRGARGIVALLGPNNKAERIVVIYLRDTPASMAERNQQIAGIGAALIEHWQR
Sequence of Pa AmpC (P24735 27-397): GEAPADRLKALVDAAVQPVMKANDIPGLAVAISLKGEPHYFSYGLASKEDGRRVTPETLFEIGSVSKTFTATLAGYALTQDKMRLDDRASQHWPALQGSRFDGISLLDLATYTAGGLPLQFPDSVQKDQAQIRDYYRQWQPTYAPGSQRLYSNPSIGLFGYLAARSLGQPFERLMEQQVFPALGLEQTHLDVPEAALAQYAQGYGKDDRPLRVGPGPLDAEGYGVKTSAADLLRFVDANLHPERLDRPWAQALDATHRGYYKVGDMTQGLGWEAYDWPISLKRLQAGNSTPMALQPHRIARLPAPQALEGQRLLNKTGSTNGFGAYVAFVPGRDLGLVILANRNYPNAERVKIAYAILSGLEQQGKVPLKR
Sequence of P99 (P05364 21-381): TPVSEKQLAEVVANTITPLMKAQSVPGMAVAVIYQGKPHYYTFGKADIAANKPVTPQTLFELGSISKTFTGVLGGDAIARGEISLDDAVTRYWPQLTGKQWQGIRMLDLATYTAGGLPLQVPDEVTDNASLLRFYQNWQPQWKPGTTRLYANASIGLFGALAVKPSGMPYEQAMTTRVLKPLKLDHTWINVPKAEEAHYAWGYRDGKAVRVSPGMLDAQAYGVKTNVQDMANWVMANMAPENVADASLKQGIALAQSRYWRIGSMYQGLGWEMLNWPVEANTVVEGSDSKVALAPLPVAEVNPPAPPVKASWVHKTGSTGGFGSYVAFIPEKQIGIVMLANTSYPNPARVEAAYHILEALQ
Sequence of OXA-48 (Q6XEC0 23-265, looked up, species assumed): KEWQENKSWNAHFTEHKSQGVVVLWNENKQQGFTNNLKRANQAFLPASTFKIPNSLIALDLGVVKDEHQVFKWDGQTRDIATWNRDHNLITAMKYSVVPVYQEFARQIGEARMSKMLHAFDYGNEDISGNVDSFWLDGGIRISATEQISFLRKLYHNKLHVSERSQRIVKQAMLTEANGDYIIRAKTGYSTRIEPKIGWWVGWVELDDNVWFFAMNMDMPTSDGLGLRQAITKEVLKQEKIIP
Sequence of KPC-2 (Q9F663 25-293, looked up, species assumed): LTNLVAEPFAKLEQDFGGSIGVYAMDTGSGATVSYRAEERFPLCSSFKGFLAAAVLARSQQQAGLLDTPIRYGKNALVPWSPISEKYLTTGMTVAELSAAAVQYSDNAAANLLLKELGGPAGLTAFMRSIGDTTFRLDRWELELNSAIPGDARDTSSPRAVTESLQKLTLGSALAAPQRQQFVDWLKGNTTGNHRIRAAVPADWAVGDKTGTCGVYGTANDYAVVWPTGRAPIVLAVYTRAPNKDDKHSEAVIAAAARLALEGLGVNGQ

Row | Compound | AZT MPC4 TEM-10 ec302 [2] | AZT MPC4 KPC-2 KP1004 [3] | AZT MPC4 ECL1002 [4] | AZT MPC4 CMY-6 EC1010 [5] | TIG MPC4 CTX-M-14 KP1005 [6] | TIG MPC4 CTX-M-15 KP1009 [7] | TIG MPC4 SHV-5 ec308 [8] | TIG MPC4 SHV-12 KP1010 [9] | TIG MPC4 TEM-10 ec302 [10] | TIG MPC4 ECL1002 [11] | TIG MPC4 CMY-6 EC1010 [12] | Ki [13] | Ki [14] | Ki [15] | Ki [16] | Ki [17] | Ki [18] | BPM MPC1 KP1004 KPC-2 [19] | BPM MPC1 OXA-48 KP1086 [20] | further results
1 | O=C(O)CC(=O)N[C@H]1Cc2ccc(F)c(C(=O)O)c2OB1O [Compound 4, (R)-3-(2-carboxyacetamido)-7-fluoro-2-hydroxy-3,4-dihydro-2H-benzo[e][1,2]oxaborinine-8-carboxylic acid] | Y (MIC of 1 μg/mL to 10 μg/mL) | Y (MIC of 1 μg/mL to 10 μg/mL) | Y (MIC of 1 μg/mL to 10 μg/mL) | Y (key: X: MIC of less than 1 ng/mL; Y: MIC of 1 μg/mL to 10 μg/mL; Z: MIC of greater than 10 μg/mL) | Y (MIC of 1 μg/mL to 10 μg/mL) | X (MIC of less than 1 μg/mL) | Y (key: X: MIC of less than 1 ng/mL; Y: MIC of 1 μg/mL to 10 μg/mL; Z: MIC of greater than 10 μg/mL) | Y (key: X: MIC of less than 1 ng/mL; Y: MIC of 1 μg/mL to 10 μg/mL; Z: MIC of greater than 10 μg/mL) | Z (key: X: MIC of less than 1 ng/mL; Y: MIC of 1 μg/mL to 10 μg/mL; Z: MIC of greater than 10 μg/mL) | X (MIC of less than 1 μg/mL) | X (MIC of less than 1 μg/mL) | < 0.001 µM | < 0.001 µM | > 0.01 µM | > 0.01 µM | > 0.01 µM | < 0.001 µM | X (MIC of less than 1 μg/mL) | Z (MIC of greater than 10 μg/mL) | AZT MPC4 CTX-M-14 KP1005 [1]: Y (MIC of 1 μg/mL to 10 μg/mL)
2 | CSCC(=O)N[C@H]1Cc2ccc(SC3CNC3)c(C(=O)O)c2OB1O [Compound 11, (R)-7-(azetidin-3-ylthio)-2-hydroxy-3-(2-(methylthio)acetamido)-3,4-dihydro-2H-benzo oxaborinine-8-carboxylic acid] | Y (MIC of 1 μg/mL to 10 μg/mL) | Y (MIC of 1 μg/mL to 10 μg/mL) | Y (MIC of 1 μg/mL to 10 μg/mL) | Y (key: X: MIC of less than 1 ng/mL; Y: MIC of 1 μg/mL to 10 μg/mL; Z: MIC of greater than 10 μg/mL) | X (MIC of less than 1 μg/mL) | Y (MIC of 1 μg/mL to 10 μg/mL) | X (key: X: MIC of less than 1 μg/mL; Y: MIC of 1 μg/mL to 10 μg/mL; Z: MIC of greater than 10 μg/mL) | X (key: X: MIC of less than 1 μg/mL; Y: MIC of 1 μg/mL to 10 μg/mL; Z: MIC of greater than 10 μg/mL) | Z (key: X: MIC of less than 1 ng/mL; Y: MIC of 1 μg/mL to 10 μg/mL; Z: MIC of greater than 10 μg/mL) | X (MIC of less than 1 μg/mL) | X (MIC of less than 1 μg/mL) | 0.001 to 0.01 µM | 0.001 to 0.01 µM | > 0.01 µM | > 0.01 µM | > 0.01 µM | 0.001 to 0.01 µM | X (MIC of less than 1 μg/mL) | Y (MIC of 1 μg/mL to 10 μg/mL) | % Monomer in 1 mg/mL salt solution [21]: 88.0%
3 | CSCC(=O)N[C@H]1Cc2ccc(SCC(N)=O)c(C(=O)O)c2OB1O [Compound 22, (R)-7-(2-amino-2-oxoethylthio)-2-hydroxy-3-(2-(methylthio)acetamido)-3,4-dihydro-2H-benzo[e][1,2]oxaborinine-8-carboxylic acid] | Y (MIC of 1 μg/mL to 10 μg/mL) | Y (MIC of 1 μg/mL to 10 μg/mL) | Y (MIC of 1 μg/mL to 10 μg/mL) | Y (key: X: MIC of less than 1 ng/mL; Y: MIC of 1 μg/mL to 10 μg/mL; Z: MIC of greater than 10 μg/mL) | X (MIC of less than 1 μg/mL) | X (MIC of less than 1 μg/mL) | X (key: X: MIC of less than 1 μg/mL; Y: MIC of 1 μg/mL to 10 μg/mL; Z: MIC of greater than 10 μg/mL) | X (key: X: MIC of less than 1 μg/mL; Y: MIC of 1 μg/mL to 10 μg/mL; Z: MIC of greater than 10 μg/mL) | Y (key: X: MIC of less than 1 ng/mL; Y: MIC of 1 μg/mL to 10 μg/mL; Z: MIC of greater than 10 μg/mL) | Y (MIC of 1 μg/mL to 10 μg/mL) | X (MIC of less than 1 μg/mL) | < 0.001 µM | < 0.001 µM | > 0.01 µM | > 0.01 µM | > 0.01 µM | – | X (MIC of less than 1 μg/mL) | Z (MIC of greater than 10 μg/mL) | –
4 | CSCC(=O)N[C@H]1Cc2cc(F)c(F)c(C(=O)O)c2OB1O [Compound 36, (R)-6,7-difluoro-2-hydroxy-3-(2-(methylthio)acetamido)-3,4-dihydro-2H-benzo[e][1,2]oxaborinine-8-carboxylic acid] | Y (MIC of 1 μg/mL to 10 μg/mL) | Y (MIC of 1 μg/mL to 10 μg/mL) | Y (MIC of 1 μg/mL to 10 μg/mL) | Y (key: X: MIC of less than 1 ng/mL; Y: MIC of 1 μg/mL to 10 μg/mL; Z: MIC of greater than 10 μg/mL) | X (MIC of less than 1 μg/mL) | X (MIC of less than 1 μg/mL) | X (key: X: MIC of less than 1 μg/mL; Y: MIC of 1 μg/mL to 10 μg/mL; Z: MIC of greater than 10 μg/mL) | X (key: X: MIC of less than 1 μg/mL; Y: MIC of 1 μg/mL to 10 μg/mL; Z: MIC of greater than 10 μg/mL) | Y (key: X: MIC of less than 1 ng/mL; Y: MIC of 1 μg/mL to 10 μg/mL; Z: MIC of greater than 10 μg/mL) | X (MIC of less than 1 μg/mL) | X (MIC of less than 1 μg/mL) | < 0.001 µM | < 0.001 µM | > 0.01 µM | > 0.01 µM | > 0.01 µM | < 0.001 µM | X (MIC of less than 1 μg/mL) | Y (MIC of 1 μg/mL to 10 μg/mL) | –
